Laboratory results reported in US20220111028A1, “Combination Of A STING Agonist And A Complex Comprising A Cell Penetrating Peptide, A Cargo And A TLR Peptide Agonist” (priority 2020, published 2022).

What was measured:
TC-1 tumor [1] = assay: TC-1 tumor model: tumor growth, survival and circulating CD8 T cells (STINGa 2); format: in vivo, C57BL/6 mice; settings: TC-1 model, complex day 6 and 13, STINGa 2 s.c. days 6, 10, 13 and 17
Method: (§1) C57BL/6 mice were implanted s.c. with 1×10^5 TC-1 tumor cells in the back and mice were stratified according to tumor size on day 6 tumor implantation. Alternatively, C57BL/6J mice were injected i.v. with 1×10^5 B16-OVA cells. Mice were vaccinated two times (at day 6 and 13 post tumor implantation) by s.c. injection of 10 nmoles of vaccine at the tail base. At the same time of vaccination, mice received 25 μg of STING agonist administered via 2×50 μl s.c. injections in each side of the low back. Alternatively, at the same time of vaccination, mice received 10 μg of STING agonist 2 administered via 2×100 μl s.c. injections in each side of the low back.
(§2) Tumor size was measured with a caliper and mice were euthanized when tumor reached a volume of 1000 mm^3. Tumor volume was calculated with the following formula:
(§3) V=length×length×width×Pi/6
Similarly as described above, 10^5 TC-1 cells were implanted on the back of C57BL/6 mice and assigned to distinct groups (control (no treatment); complex comprising a cell penetrating peptide, at least one antigen or antigenic epitope, and a TLR peptide agonist (Z13Mad25Anaxa); STING agonist STINGa 2; and a combination thereof). […]

TC-1 tumor [2] = assay: TC-1 tumor model: intra-tumoral expression of PD-L1, MHC-I and MHC-II; format: in vivo, C57BL/6 mice
Method: as §1
(§4) TC-1 tumors were harvested at day 20 post implantation and tumor-infiltrating leucocytes (TIL) were purified using Miltenyi tumor dissociation kit following manufacturer instruction. Briefly, tumor tissues were cut into small pieces, and resuspended in DMEM medium containing tumor dissociating enzymes (Miltenyi). Tumors were digested on a Gentle MACS with heating system (Miltenyi) using solid tumor program. […]
Furthermore, down-regulation of MHC-I expression on tumor cells is one of the main mechanism of immune evasion. Therefore, the intra-tumoral expression of PD-L1 and MHC-I as well as MHC-II was also monitored in the TC-1 tumor model as described above.

TC-1 tumor [3] = assay: TC-1 tumor model: tumor microenvironment composition by FACS; format: in vivo, C57BL/6 mice; settings: systemic administration
Method: as §1
as §4, with “program. Enzymatic digestion was stopped by adding cold PBS 0.5% BSA solution and keeping cells on ice. Digested tumors were passed through a 70 μm to eliminate remaining undigested tissue. CD45+ cells were purified using CD45 TIL microbeads (Miltenyi) following manufacturer protocol.” for “program.”

TC-1 tumor [4] = assay: TC-1 tumor model: tumor growth and survival (STINGa); format: in vivo, C57BL/6 mice; settings: TC-1 model, treated twice at one-week interval
Method: as §1, §2, §3
10^5 TC-1 cells were implanted on the back of C57BL/6 mice. When tumors were visible, mice were treated twice at one-week interval as described above in therapeutic settings of the TC-1 tumor model with (i) the complex comprising a cell penetrating peptide, at least one antigen or antigenic epitope, and a TLR peptide agonist (Z13Mad25Anaxa); (ii) the STING agonist; or (iii) a combination of both.

TC-1 tumor [5] = assay: TC-1 tumor model: antigen-specific CD8 T cell responses; format: in vivo, C57BL/6 mice
Method: as §1
(§5) TC-1 tumors were harvested at day 20 post implantation and tumor-infiltrating leucocytes (TIL) were purified using Miltenyi tumor dissociation kit following manufacturer instruction. Briefly, tumor tissues were cut into small pieces, and resuspended in DMEM medium containing tumor dissociating enzymes (Miltenyi). Tumors were digested on a Gentle MACS with heating system (Miltenyi) using solid tumor program. Enzymatic digestion was stopped by adding cold PBS 0.5% BSA solution and keeping cells on ice. Digested tumors were passed through a 70 μm to eliminate remaining undigested tissue. CD45+ cells were purified using CD45 TIL microbeads (Miltenyi) following manufacturer protocol. Purified CD45+ cells were used for flow cytometry staining or ex vivo T cells stimulation.
(§6) Peripheral blood and spleen mononuclear cell suspensions from mice were isolated using Ficoll-Paque gradient (GE Healthcare) before flow cytometry analysis, ex vivo stimulation or TCR avidity assay.
TILs, LILs or splenocytes were numerated and 1×10^5 or 2×10^6 cells were plated per condition, respectively. […]
(§7) The following antibodies were used: CD45 (30-F11), CD11b (M1/70), KLRG1 (2F1), CD103 (M290), NKg2a (20d5), Ly6C (AL-21), Ly6G (1A8), PD-L1 (MIH5), I-A/I-E (M5/114), CD11c (HL3), PDCA1 (927), CD64 (X54-5/7.1), B220 (RA3-6B2), CD24 (M1/69), CD4 (GK1.5), CD25 (3C7), CD3 (500A2), NKp46 (29A1.4), TNF-α (MP6-XT22), IFN-γ (XMG1.2), H2-Kb (AF6-88.5) and H2-db (28-14-8) were from BD Biosciences; Tim3 (RMT3-23), PD-1 (29F.1A12), CD38 (90), Gr-1 (RB6-8C5), CD206 (C068C2), CD68 (FA-11) were from BioLegend; Ki67 (solA15), FoxP3 (FJK-16s), T-bet (4B10), GATA-3 (TWAJ) and RORγt (AFKJS-9) were from ThermoFisher Scientific; Granzyme B (REA226) was from Miltenyi; CD8 (KT15) was from MBL. […] Cells were analyzed using an Attune NxT flow cytometer (ThermoFisher Scientific) Kaluza (Beckman Coulter) software.
To this end, 10^5 TC-1 tumor cells were implanted on the back of C57BL/6 mice. […] One week after the last treatment, mice were sacrificed, tumor harvested, and CD8 T cells presence and phenotype was analyzed by FACS staining.

B16-OVA tumor = assay: B16-OVA pulmonary metastases tumor model; format: in vivo, C57BL/6 mice; settings: B16-OVA i.v., day 20
Method: as §1
B16-OVA tumor bearing mice were sacrificed at day 20, lungs were perfused with a saline solution and the number of lung metastasis was counted.
B16-OVA tumor bearing mice were perfused with a saline solution to eliminate blood from the lungs before their collection. Lung-infiltrating leucocytes (LILs) were purified using mouse tumor dissociation kit from Miltenyi, following manufacturer instruction. […]
Briefly, 10^5 B16-OVA cells were injected intravenously into C57BL/6 mice. […] At day 20 (10 days after the last vaccination), lungs were perfused to eliminate blood, the number of pulmonary metastasis was counted, and lung infiltrating lymphocytes (LILs) were analyzed.

TC-1 tumor [6] = assay: TC-1 tumor model: intra-tumoral CD4 T cell responses; format: in vivo, C57BL/6 mice
Method: as §1
as §5, with “Purified CD45+ cells were used for flow cytometry staining or ex vivo T cells stimulation.” left out
In view thereof, intra-tumoral CD4 T cells were monitored next. […]

[7] = test system: HPV-E7-specific CD8 T cells, splenic CD8 and CD4 T cells; assay: Immunogenicity in tumor-free mice: multimer staining and flow cytometry of blood and splenocytes; format: in vivo, C57BL/6 mice
Method: as §6
TILs, LILs or splenocytes were numerated and 1×10^5 or 2×10^6 cells were plated per condition, respectively. Cells were incubated with HPV-CD4, HPV-CD8, OVA-CD8 or OVA-CD4 epitope peptide, with PMA/ionomycin as a positive control or without any stimulant as a negative control, in presence of Golgi stop (BD biosciences) and anti-CD107a for 6 hours. […]
as §7, with “software. […]” for “software.”

IFN-α = assay: Quantification of serum interferon-α (ELISA) in tumor-free mice; format: in vivo, C57BL/6 mice; settings: 4 and 24 hours post first vaccination, s.c.
Method: Blood was collected from mouse tail vein and serum was isolated by centrifugation using Starstedt tubes. The concentration of IFN-α cytokine was measured using commercial ELISA kits according to the manufacturer's recommendations (PBL Assay Science).
In order to evaluate the immunogenicity of the combination, tumor-free C57BL/6 mice were vaccinated twice at 2 weeks interval (at day 0 and 14) by s.c. injection of 10 nmoles of Z13Mad25Anaxa (an exemplified a complex comprising a cell penetrating peptide, at least one antigen or antigenic epitope, and a TLR peptide agonist, which contains human papilloma virus (HPV)-derived CD4 and CD8 epitopes. At about the same time of vaccination, mice received 25 μg of STING agonist ADU-S100 administered via 2×50 μl s.c. injections in each side of the low back. Serum was collected 4 and 24 hours after the first vaccination and IFN-α concentration was measured by ELISA. Whole blood was collected at day 21 and used for antigen-specific CD8 T cells measurement by multimer flow cytometry staining. At the same time, spleens were harvested and splenocytes used for ex vivo stimulation and intracellular cytokine production was analyzed by flow cytometry. Alternatively, splenocytes were used for TCR avidity assay.

MC38-CEA tumor = MC38-CEA tumor model: CEA-specific CD8 T cells by multimer staining; format: in vivo, C57BL/6J mice; settings: multimer staining one week after second vaccination, MC38-CEA tumor-bearing mice
Method: Alternatively, female C57BL/6J mice were implanted with 5×10^5 MC38-CEA tumor cells subcutaneously on the back of the mouse and vaccinated twice at the base of the tail (at day 6 and 13 post tumor implantation) by s.c. injection of 10 nmoles of vaccine, 25 μg of STINGa (ADU-S100) or a combination of the two.
Female C57BL/6J mice were implanted with 5*10^5 MC38-CEA tumor cells subcutaneously on the back of the mouse. At day 6 and day 13 post tumor implantation, mice were vaccinated with 10 nmol of ATP128, 25 μg of a STING agonist (ADU-S100) or a combination of the two. Both the ATP128 vaccine and the STING agonist were injected subcutaneously at the base of the tail. One week after the second vaccination, mouse blood was collected from the tail vein and the frequency and the total number of CEA-specific CD8 T cells was analyzed by flow cytometry using a custom designed multimer.

`Nc1ncnc2c1ncn2[C@@H]1O[C@@H]2COP(=O)(S)O[C@@H]3[C@H](O)[C@@H](COP(=O)(S)O[C@H]2[C@H]1F)O[C@H]3n1cnc2c(=O)[nH]ncc21` (stereo partly drawn) [STINGa 2] was tested, and the Survival (TC-1 tumor [1]) was “only provided a slight improvement” and the Tumor growth (TC-1 tumor [1]) was “only provided a slight improvement”.
In the case of `Nc1ncnc2c1ncn2[C@@H]1O[C@@H]2CO[P@@](=O)([S][Na])O[C@@H]3[C@H](O)[C@@H](CO[P@@](=O)([S][Na])O[C@H]2[C@H]1O)O[C@H]3n1cnc2c(N)ncnc21` [STINGa, reference compound], the “Intra-tumoral immunogenicity (modulation of TME)” value (TC-1 tumor [2]) is reported as “no effect was observed”, the “Composition of TME” value (TC-1 tumor [3]) is reported as “does not affect the composition of TME” and the “Tumor development / tumor growth” value (TC-1 tumor [4]) is reported as “only a small effect on tumor growth”. For the same compound, the “HPV-specific proportion of tumor-infiltrating CD8 T cells (in words)” value (TC-1 tumor [5]; TC-1 tumor) was “did not modulate”, the “Expression of exhaustion markers PD-1 and Tim-3 by tumor-infiltrating CD8 T cells” value (TC-1 tumor [5]; TC-1 tumor, flow cytometry) was “expressed only PD-1 or no exhaustion marker at all” and the “CD8 T cells tumor infiltration” value (TC-1 tumor [5]; TC-1 tumor, one week after last treatment) was “did not modulate”. For the same compound, the “Circulating HPV-specific CD8 T cells (frequency and number)” value (TC-1 tumor [5]; blood, one week after last treatment, TC-1 tumor-bearing mice) was “no effect”, the “Number of metastatic nodules per lung” value (B16-OVA tumor) was “no effect” and the “Tumor infiltration by CD4 T cells” value (TC-1 tumor [6]) was “no effect on intra-tumoral CD4 T cells recruitment”. The “Proportion of splenic CD8 T cells” value [7] was “higher proportion of splenic CD8 T cells”, the “Cytokine secretion by CD8 T cells after ex vivo PMA/Ionomycin restimulation” value ([7]; splenocytes) was “increased cytokine secretion” and the “Serum IFN-α level (systemic type I interferon response)” value (IFN-α) was “high IFN-α serum levels peaking 4 hours post injection and decreasing already 24 hours later”.
“ATP128: Vaccine construct (SEQ ID NO: 54) containing CEA, survivin and ASCL2 epitopes, cell penetrating peptide and TLR peptide agonist” was tested, and the “CEA-specific CD8 T cell response” value (MC38-CEA tumor) was “elicits CEA-specific CD8 T cells”.
